Molecular target: T1, lysozyme (Lyz) from chicken egg white (Gallus gallus, UniProt P00698)
T1 construct: native mature protein from egg white (signal peptide removed), 129 residues, four disulfides, commercial (Sigma-Aldrich), used without further purification
Assay: quenching of ligand fluorescence by protein (excitation […] nm), Stern-Volmer, static
Conditions: pH 7.4, 298 K, 10 mM Trizma; zwitterionic species; KSV taken as binding constant

T1 sequence (P00698 19-147): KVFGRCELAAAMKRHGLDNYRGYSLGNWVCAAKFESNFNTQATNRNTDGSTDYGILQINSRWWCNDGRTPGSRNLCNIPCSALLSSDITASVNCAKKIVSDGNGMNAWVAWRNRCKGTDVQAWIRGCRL

| Stern-Volmer binding constant (KSV) | SMILES |
| --- | --- |
| (0.27 ± 0.02) × 10^4 L mol^-1 | C[C@H]1COc2c(N3CCN(C)CC3)c(F)cc3c(=O)c(C(=O)O)cn1c23 [Levofloxacin] |
| (1.80 ± 0.01) × 10^4 L mol^-1 | O=C(O)c1cn(C2CC2)c2cc(N3CCNCC3)c(F)cc2c1=O [Ciprofloxacin, 1-cyclopropyl-6-fluoro-4-oxo-7-(piperazin-1-yl)-1,4-dihydroquinoline-3-carboxylic acid] |
